Data: US8048862B2, “Macrocyclic inhibitors of hepatitis C virus replication” (priority 2008, dated 2011)
Read-outs that look alike come from different tables or passages of the source.

Key:
NS3/NS4 complexes = NS3/NS4 complexes (Hepatitis C virus genotype 1a, UniProt P27958); experiment: NS3/NS4 inhibition activity (IC50); type: biochemical
Summary of the method: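 NS3/NS4 complexes were formed and compound inhibitory concentrations determined at ambient temperature (23 °C). The buffer contained 50 mM Tris-HCl pH 7.5, 15% glycerol, 0.6 mM LDAO, 25 μM NS4A peptide and 10 mM DTT.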

hepatitis C replicon = hepatitis C replicon EC50; type: cell-based; details: Hepatitis C virus
Text: NS3-NS4 inhibition activity can be determined using known assay methods.

[1] = Table 2, hepatitis C replicon, read-out: EC50
[2] = Table 3, hepatitis C replicon, read-out: EC50

Chain of NS3/NS4 complexes (P27958 1027-1657): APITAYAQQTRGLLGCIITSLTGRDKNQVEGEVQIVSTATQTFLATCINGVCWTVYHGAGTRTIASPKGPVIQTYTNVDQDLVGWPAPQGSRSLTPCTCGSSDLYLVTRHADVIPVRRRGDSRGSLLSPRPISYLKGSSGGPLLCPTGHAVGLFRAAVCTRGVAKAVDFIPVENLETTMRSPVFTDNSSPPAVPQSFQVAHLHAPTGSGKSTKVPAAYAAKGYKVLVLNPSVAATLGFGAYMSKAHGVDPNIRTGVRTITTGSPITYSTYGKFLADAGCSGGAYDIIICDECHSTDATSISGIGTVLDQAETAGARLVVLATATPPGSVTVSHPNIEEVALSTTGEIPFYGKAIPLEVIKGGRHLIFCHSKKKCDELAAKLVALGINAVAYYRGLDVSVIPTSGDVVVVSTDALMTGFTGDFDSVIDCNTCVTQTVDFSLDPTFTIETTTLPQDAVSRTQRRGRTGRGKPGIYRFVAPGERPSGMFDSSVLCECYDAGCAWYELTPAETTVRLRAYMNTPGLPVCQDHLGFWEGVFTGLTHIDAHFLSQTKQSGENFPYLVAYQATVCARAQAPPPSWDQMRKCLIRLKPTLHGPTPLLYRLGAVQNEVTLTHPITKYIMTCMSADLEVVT
Chain of NS3/NS4 complexes (P27958 1658-1711): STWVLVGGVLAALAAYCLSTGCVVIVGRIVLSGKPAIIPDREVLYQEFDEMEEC

| Structure (SMILES) | IC50 (NS3/NS4 complexes; Table 2, read-out: IC50) | EC50 (hepatitis C replicon; [1]) | IC50 (NS3/NS4 complexes; Table 3, read-out: IC50) | EC50 (hepatitis C replicon; [2]) | further results |
| --- | --- | --- | --- | --- | --- |
| Cc1ccc2nc(O[C@@H]3C[C@H]4C(=O)N[C@]5(C(=O)NS(=O)(=O)C6(C)CC6)C[C@H]5/C=C\CCCCC[C@H](Nc5ccccc5)C(=O)N4C3)n(C(C)C)c2c1 [Compound 462] | < 10 nM | 10 to 75 nM |  |  |  |
| CC(=O)N(Cc1ccccc1)[C@H]1CCCCC/C=C\[C@@H]2C[C@@]2(C(=O)NS(=O)(=O)C2(C)CC2)NC(=O)[C@@H]2C[C@@H](Oc3nc4ccccc4s3)CN2C1=O [Compound 315] | 10 to 75 nM | > 500 nM |  |  |  |
| CC1(S(=O)(=O)NC(=O)[C@@]23C[C@H]2/C=C\CCCCC[C@H](Nc2ccc(Cl)cc2)C(=O)N2C[C@H](Oc4nc5ccccc5s4)C[C@H]2C(=O)N3)CC1 [Compound 332] | < 10 nM | 75 to 500 nM |  |  |  |
| CN(C)C(=O)O[C@@H]1C[C@H]2C(=O)N[C@]3(C(=O)NS(=O)(=O)C4(C)CC4)C[C@H]3/C=C\CCCCC[C@H](NC(=O)OC(C)(C)C)C(=O)N2C1 [Compound 1065] |  |  | < 10 nM |  | EC50 (hepatitis C replicon): > 100 nM |
| CC(C)n1c(O[C@@H]2C[C@H]3C(=O)N[C@]4(C(=O)NS(=O)(=O)N(C)C)C[C@H]4/C=C\CCCCC[C@H](Nc4cc(F)cc(C(F)(F)F)c4)C(=O)N3C2)nc2ccccc21 [Compound 391] | < 10 nM | 10 to 75 nM |  |  |  |
| COc1ccc2c(O[C@@H]3C[C@H]4C(=O)N[C@]5(C(=O)NS(=O)(=O)C6(C)CC6)C[C@H]5/C=C\CCCCC[C@H](Nc5cccc(OC(F)(F)F)c5)C(=O)N4C3)cc(-c3ccccc3)nc2c1 [Compound 392] | < 10 nM | < 10 nM |  |  |  |
| CC1(S(=O)(=O)NC(=O)[C@@]23C[C@H]2/C=C\CCCCC[C@H](Nc2ccc(F)c(C(F)(F)F)c2)C(=O)N2C[C@H](OC(=O)N4Cc5cccc(F)c5C4)C[C@H]2C(=O)N3)CC1 [Compound 1120] |  |  | < 10 nM | < 10 nM |  |
| CC(C)n1c(O[C@@H]2C[C@H]3C(=O)N[C@]4(C(=O)NS(=O)(=O)N(C)C)C[C@H]4/C=C\CCCCC[C@H](NC(=O)OC(C)(C)C)C(=O)N3C2)nc2ccccc21 [Compound 1131] |  |  | < 10 nM | < 10 nM |  |
| CC(C)n1c(O[C@@H]2C[C@H]3C(=O)N[C@]4(C(=O)NS(=O)(=O)N(C)C)C[C@H]4/C=C\CCCCC[C@H](NC(=O)OC(C)(C)C)C(=O)N3C2)nc2ccc(F)cc21 [Compound 1136] |  |  | < 10 nM | < 10 nM |  |
| CCn1c(O[C@@H]2C[C@H]3C(=O)N[C@]4(C(=O)NS(=O)(=O)C5CC5)C[C@H]4/C=C\CCCCC[C@H](NC(=O)OC(C)(C)C)C(=O)N3C2)nc2ccccc21 [Compound 1007] |  |  | < 10 nM | < 10 nM |  |
| CO[C@@H]1C[C@H]2C(=O)N[C@]3(C(=O)NS(=O)(=O)CC(=O)Nc4ccccc4)C[C@H]3/C=C\CCCCC[C@H](NC(=O)OC(C)(C)C)C(=O)N2C1 [Compound 1099] |  |  | < 10 nM |  | EC50 (hepatitis C replicon): < 10 nM |
| Cc1ccc2nc(O[C@@H]3C[C@H]4C(=O)N[C@]5(C(=O)NS(=O)(=O)C6(C)CC6)C[C@H]5/C=C\CCCCC[C@H](Nc5cc(F)cc(C(F)(F)F)c5)C(=O)N4C3)sc2c1 [Compound 350] | < 10 nM | 75 to 500 nM |  |  |  |
| CC(C)(C)OC(=O)N[C@H]1CCCCC/C=C\[C@@H]2C[C@@]2(C(=O)N2CCC[C@@H]2C(=O)NCc2ccccc2)NC(=O)[C@@H]2C[C@@H](OC(=O)N3Cc4cccc(F)c4C3)CN2C1=O [Compound 1057] |  |  |  |  | IC50 (NS3/NS4 complexes; IC50, Table 3): > 100 nM; EC50 (hepatitis C replicon): > 100 nM |
| CC1(S(=O)(=O)NC(=O)[C@@]23C[C@H]2/C=C\CCCCC[C@H](Nc2ccc(C(F)(F)F)cc2)C(=O)N2C[C@H](OC(=O)N4Cc5cccc(F)c5C4)C[C@H]2C(=O)N3)CC1 [Compound 1118] |  |  | < 10 nM | > 100 nM |  |
| CC(C)(C)OC(=O)N[C@H]1CCCCC/C=C\[C@@H]2C[C@@]2(C(=O)NS(=O)(=O)c2ccccc2OCC(N)=O)NC(=O)[C@@H]2C[C@@H](OC(=O)N3Cc4cccc(F)c4C3)CN2C1=O [Compound 1083] |  |  | < 10 nM | > 100 nM |  |
| CNC(=O)COc1ccccc1S(=O)(=O)NC(=O)[C@@]12C[C@H]1/C=C\CCCCC[C@H](NC(=O)OC(C)(C)C)C(=O)N1C[C@H](O)C[C@H]1C(=O)N2 [Compound 1094] |  |  | > 100 nM | > 100 nM |  |
| O=C1N[C@]2(C(=O)O)C[C@H]2/C=C\CCCCC[C@H](Nc2cc(C(F)(F)F)cc(C(F)(F)F)c2)C(=O)N2C[C@H](Oc3nc4ccccc4s3)C[C@@H]12 [Compound 338] | 75 to 500 nM | > 500 nM |  |  |  |
| CC(C)Cn1c(O[C@@H]2C[C@H]3C(=O)N[C@]4(C(=O)NS(=O)(=O)C5(C)CC5)C[C@H]4/C=C\CCCCC[C@H](Nc4cc(F)cc(C(F)(F)F)c4)C(=O)N3C2)nc2ccccc21 [Compound 402] | < 10 nM | 10 to 75 nM |  |  |  |

| Structure (SMILES) | IC50 (NS3/NS4 complexes; Table 2, read-out: IC50) | EC50 (hepatitis C replicon; [1]) | IC50 (NS3/NS4 complexes; Table 3, read-out: IC50) | EC50 (hepatitis C replicon; [2]) | further results |
| --- | --- | --- | --- | --- | --- |
| COc1ccc2c(O[C@@H]3C[C@H]4C(=O)N[C@]5(C(=O)NS(=O)(=O)C6(C)CC6)C[C@H]5/C=C\CCCCC[C@H](Nc5cccc(NC(C)=O)c5)C(=O)N4C3)cc(-c3nc(C(C)C)cs3)nc2c1C [Compound 475] | < 10 nM | < 10 nM |  |  |  |
| CC1(S(=O)(=O)NC(=O)[C@@]23C[C@H]2/C=C\CCCCC[C@H](Nc2ccc(F)cc2)C(=O)N2C[C@H](Oc4nc5ccccc5s4)C[C@H]2C(=O)N3)CC1 [Compound 349] | < 10 nM | 10 to 75 nM |  |  |  |
| CC(C)(C)OC(=O)N[C@H]1CCCCC/C=C\[C@@H]2C[C@@]2(C(=O)NS(=O)(=O)C2CC2)NC(=O)[C@@H]2C[C@@H](Oc3nc4ccccc4s3)CN2C1=O [Compound 1009] |  |  | < 10 nM | < 10 nM |  |
| CC(C)(C)OC(=O)N[C@H]1CCCCC/C=C\[C@@H]2C[C@@]2(C(=O)NS(=O)(=O)C2CC2)NC(=O)[C@@H]2C[C@@H](Oc3nc4ccc(F)cc4o3)CN2C1=O [Compound 1037] |  |  | < 10 nM | > 100 nM |  |
| CC1(S(=O)(=O)NC(=O)[C@@]23C[C@H]2/C=C\CCCCC[C@H](Nc2cccc(C(F)(F)F)c2)C(=O)N2C[C@H](Oc4nc5ccccc5s4)C[C@H]2C(=O)N3)CC1 [Compound 222] | < 10 nM | 75 to 500 nM |  |  |  |
| COc1cccc(N[C@H]2CCCCC/C=C\[C@@H]3C[C@@]3(C(=O)NS(=O)(=O)C3(C)CC3)NC(=O)[C@@H]3C[C@@H](Oc4cc(-c5nc(C(C)C)cs5)nc5c(C)c(OC)ccc45)CN3C2=O)c1 [Compound 478] | < 10 nM | 75 to 500 nM |  |  |  |
| COc1ccc2c(O[C@@H]3C[C@H]4C(=O)N[C@]5(C(=O)NS(=O)(=O)C6CC6)C[C@H]5/C=C\CCCCC[C@H](Nc5cccc(C(F)(F)F)c5)C(=O)N4C3)cc(-c3nc(C(C)C)cs3)nc2c1C [Compound 369] | < 10 nM | < 10 nM |  |  |  |
| CN(C)C(=O)c1cccc(N[C@H]2CCCCC/C=C\[C@@H]3C[C@@]3(C(=O)NS(=O)(=O)C3(C)CC3)NC(=O)[C@@H]3C[C@@H](OC(=O)N4Cc5cccc(F)c5C4)CN3C2=O)c1 [Compound 1106] |  |  | < 10 nM | 10 to 100 nM |  |
| COc1ccc2c(O[C@@H]3C[C@H]4C(=O)N[C@]5(C(=O)NS(=O)(=O)N6CCCC6)C[C@H]5/C=C\CCCCC[C@H](Nc5ccccc5)C(=O)N4C3)cc(-c3nc(C(C)C)cs3)nc2c1C [Compound 455] | < 10 nM | < 10 nM |  |  |  |
| COc1ccc2c(O[C@@H]3C[C@H]4C(=O)N[C@]5(C(=O)NS(=O)(=O)N(C)C)C[C@H]5/C=C\CCCCC[C@H](Nc5ccc(F)c(C(F)(F)F)c5)C(=O)N4C3)cc(-c3nc(C(C)C)cs3)nc2c1C [Compound 459] | < 10 nM | < 10 nM |  |  |  |
| CC1(S(=O)(=O)NC(=O)[C@@]23C[C@H]2/C=C\CCCCC[C@H](Nc2cccc(NS(C)(=O)=O)c2)C(=O)N2C[C@H](OC(=O)N4Cc5cccc(F)c5C4)C[C@H]2C(=O)N3)CC1 [Compound 1122] |  |  | < 10 nM | 10 to 100 nM |  |
| O=C1N[C@]2(C(=O)NOc3ccccc3)C[C@H]2/C=C\CCCCC[C@H](NCc2ccccc2)C(=O)N2C[C@H](Oc3nc4ccccc4s3)C[C@@H]12 [Compound 309] | 75 to 500 nM | > 500 nM |  |  |  |
| O=C(N[C@H]1CCCCC/C=C\[C@@H]2C[C@@]2(C(=O)NS(=O)(=O)C2CC2)NC(=O)[C@@H]2C[C@@H](OC(=O)N3Cc4cccc(F)c4C3)CN2C1=O)O[C@@H]1C[C@@H]2C[C@@H]2C1 [Compound 1085] |  |  | < 10 nM | < 10 nM |  |
| CN(C)S(=O)(=O)NC(=O)[C@@]12C[C@H]1/C=C\CCCCC[C@H](NC(=O)OC(C)(C)C)C(=O)N1C[C@H](Oc3nc4ccccc4n3C)C[C@H]1C(=O)N2 [Compound 1130] |  |  | < 10 nM | < 10 nM |  |
| CNC(=O)COc1ccccc1S(=O)(=O)NC(=O)[C@@]12C[C@H]1/C=C\CCCCC[C@H](NC(=O)OC(C)(C)C)C(=O)N1C[C@H](OC(=O)N3Cc4cccc(F)c4C3)C[C@H]1C(=O)N2 [Compound 1084] |  |  | < 10 nM | > 100 nM |  |
| CC(C)(C)OC(=O)N[C@H]1CCCCC/C=C\[C@@H]2C[C@@]2(C(=O)NS(=O)(=O)Cc2ccccc2)NC(=O)[C@@H]2C[C@@H](OC(=O)N3Cc4cccc(F)c4C3)CN2C1=O [Compound 1086] |  |  | < 10 nM | > 100 nM |  |
| COc1ccc2c(O[C@@H]3C[C@H]4C(=O)N[C@]5(C(=O)NS(=O)(=O)C6(C)CC6)C[C@H]5/C=C\CCCCC[C@H](Nc5ccccc5)C(=O)N4C3)cc(-c3ccccc3)nc2c1 [Compound 220] | < 10 nM | < 10 nM |  |  |  |
